Values joined by “and” are separate entries in the source; they are usually repeats but may differ in a detail not shown here. Equal entries are not always repeated.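 1) Cells in 96-well plates. 2) Compound, 48 h, 5 concentrations. 3) Linear interpolation between surrounding doses. 4) Unreached endpoint = highest concentration. The concentration for 50% growth inhibition is given as GI50. TGI marks complete inhibition of growth.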
What was measured:
Assay in all cases: NCI tumour cell line growth inhibition, 48 h
[1] = system: NCI-H460 lung
[2] = system: SR leukemia
[3] = system: A498 renal
[4] = system: KM12 colon
[5] = system: HL-60(TB) leukemia
[6] = system: U251 CNS
[7] = system: RPMI-8226 leukemia
[8] = system: SW-620 colon
[9] = system: TK-10 renal
[10] = system: A549 NSCLC
[11] = system: HCT-116 colon
[12] = system: HOP-92 NSCLC
[13] = system: HOP-62 NSCLC
[14] = system: CCRF-CEM leukemia
[15] = system: SK-MEL-5 melanoma
[16] = system: OVCAR-4 ovarian
[17] = system: OVCAR-8 ovarian
[18] = system: ACHN renal
[19] = system: HCC-2998 colon
[20] = system: HT29 colon
[21] = system: UACC-62 melanoma
[22] = system: HCT-15 colon
[23] = system: EKVX NSCLC
[24] = system: LOX IMVI melanoma
[25] = system: MALME-3M melanoma
[26] = system: SN12C renal
[27] = system: MOLT-4 leukemia
[28] = system: NCI-H226 lung
[29] = system: OVCAR-3 ovarian
[30] = system: HOP-18 NSCLC
[31] = system: LXFL 529 NSCLC
[32] = system: RXF 393 renal
[33] = system: M19-MEL melanoma
[34] = system: 786-0 renal
[35] = system: SF-295 CNS
[36] = system: SNB-78 CNS
[37] = system: DLD-1 colon
[38] = system: UACC-257 melanoma
[39] = system: COLO 205 colon
[40] = system: IGROV1 ovarian
[41] = system: OVCAR-5 ovarian
[42] = system: SK-MEL-28 melanoma
[43] = system: SK-MEL-2 melanoma
[44] = system: K-562 leukemia
[45] = system: KM20L2 colon
[46] = system: SF-539 CNS
[47] = system: CAKI-1 renal
[48] = system: NCI-H522 lung
[49] = system: NCI-H23 lung
[50] = system: DMS 273 small cell lung
[51] = system: DMS 114 small cell lung
[52] = system: SNB-19 CNS
[53] = system: RXF-631 renal
[54] = system: SK-OV-3 ovarian
[55] = system: SNB-75 CNS
[56] = system: UO-31 renal
[57] = system: M14 melanoma
[58] = system: XF 498 CNS
[59] = system: SF-268 CNS

For `C#CCNC(=O)NCCCCC(NC(=O)OCc1ccccc1)C(=O)OCc1ccccc1` (stereo not drawn), the TGI [1] was over 100 µM, the TGI [2] was over 100 µM and the TGI [3] was over 100 µM. It also gave a TGI [4] of 69.8 µM, a TGI [5] of 35.4 µM and a TGI [6] of over 100 µM. The TGI [7] was 45.9 µM, the TGI [8] was over 100 µM and the TGI [9] was over 100 µM. It also gave a TGI [10] of over 100 µM, a TGI [11] of over 100 µM and a TGI [12] of over 100 µM. It also gave a TGI [13] of over 43 µM, a TGI [14] of 41.3 µM and a TGI [15] of over 100 µM. It also gave a TGI [16] of over 100 µM, a TGI [17] of over 100 µM and a TGI [18] of over 31.6 µM. The TGI [19] was over 72.5 µM, the TGI [20] was over 100 µM and the TGI [21] was over 100 µM. It also gave a TGI [22] of over 100 µM, a TGI [23] of over 100 µM and a TGI [24] of over 82.2 µM. The TGI [25] was over 100 µM, the TGI [26] was over 100 µM and the TGI [27] was 51.9 µM. It also gave a TGI [28] of over 100 µM, a TGI [29] of over 100 µM and a TGI [30] of over 100 µM. For the same compound, the TGI [31] was over 100 µM, the TGI [32] was over 100 µM and the TGI [33] was over 100 µM. The TGI [34] was over 100 µM, the TGI [35] was over 100 µM and the TGI [36] was over 100 µM. It also gave a TGI [37] of over 100 µM, a TGI [38] of over 100 µM and a TGI [39] of 32.8 µM. The TGI [40] was over 100 µM, the TGI [41] was over 100 µM and the TGI [42] was over 100 µM. For the same compound, the TGI [43] was over 100 µM, the TGI [44] was over 100 µM and the TGI [45] was over 100 µM. For the same compound, the TGI [46] was over 100 µM, the TGI [47] was 97.3 µM and the TGI [48] was 54 µM. It also gave a TGI [49] of over 100 µM, a TGI [50] of over 100 µM and a TGI [51] of over 73.5 µM. For the same compound, the TGI [52] was over 100 µM, the TGI [53] was over 100 µM and the TGI [54] was over 100 µM. It also gave a TGI [55] of over 100 µM, a TGI [56] of over 72.3 µM and a TGI [57] of over 100 µM. It also gave a TGI [58] of 40.8 µM.

In the case of `Clc1cccc(N2CCN(CCCN3CCc4c([nH]c5ccccc45)C3c3cccnc3)CC2)c1` (stereo not drawn), the GI50 [1] is reported as 7.85 µM, the TGI [1] is reported as 23.7 µM and the GI50 [2] is reported as 4.58 µM. The TGI [2] was 7.34 µM and 24.6 µM, the TGI [3] was 27.2 µM and the GI50 [5] was 4.63 µM. For the same compound, the TGI [5] was over 100 µM, the TGI [6] was 23.9 µM and the TGI [8] was 38.1 µM. For the same compound, the GI50 [10] was 16.1 µM, the TGI [10] was 36.9 µM and the GI50 [11] was 6.97 µM. It also gave a TGI [11] of 24.9 µM, a GI50 [12] of 12.8 µM and a TGI [12] of 31.3 µM. The TGI [13] was 32.7 µM, the GI50 [14] was 11.9 µM and the TGI [14] was over 100 µM. It also gave a GI50 [15] of 6.79 µM, a TGI [15] of 24.9 µM and a TGI [16] of 25.1 µM. The TGI [17] was 26 µM, the TGI [18] was 31.3 µM and the GI50 [19] was 3.06 µM. For the same compound, the TGI [19] was 11.9 µM, the GI50 [20] was 3.18 µM and the TGI [20] was 14.2 µM. The TGI [22] was 21.8 µM, the TGI [23] was 35.1 µM and the TGI [24] was 37.9 µM. The GI50 [25] was 5.78 µM, the TGI [25] was 8.97 µM and 21.6 µM and the TGI [26] was 30.3 µM. It also gave a GI50 [27] of 5.33 µM, a TGI [27] of 39.8 µM and a TGI [28] of 35.8 µM. For the same compound, the GI50 [29] was 9.24 µM, the TGI [29] was 22.7 µM and the TGI [30] was 36 µM. It also gave a GI50 [31] of 11.3 µM, a TGI [31] of 24.4 µM and a GI50 [32] of 11.5 µM. It also gave a TGI [32] of 31 µM, a TGI [33] of 23.4 µM and a GI50 [34] of 7.08 µM. It also gave a TGI [34] of 20.2 µM, a GI50 [36] of 2.88 µM and a TGI [36] of 9.39 µM. The TGI [37] was 27 µM, the TGI [38] was 12.1 µM and the GI50 [39] was 5.42 µM. It also gave a TGI [39] of 21.9 µM, a TGI [40] of over 100 µM and a GI50 [41] of 8.66 µM. For the same compound, the TGI [41] was 23.9 µM, the GI50 [42] was 5.58 µM and the TGI [42] was 20.4 µM. For the same compound, the TGI [43] was 24.3 µM, the GI50 [44] was 5.06 µM and the TGI [44] was over 100 µM. For the same compound, the TGI [45] was 18.8 µM, the GI50 [46] was 11.7 µM and the TGI [46] was 32.3 µM. For the same compound, the TGI [47] was 25.7 µM, the TGI [48] was 25.7 µM and the TGI [49] was 27 µM. The GI50 [50] was 12.6 µM, the TGI [50] was 27.9 µM and the TGI [52] was over 100 µM. It also gave a GI50 [53] of 19.5 µM, a TGI [53] of over 100 µM and a TGI [54] of 32.2 µM. The TGI [55] was 26.7 µM, the TGI [56] was 18.5 µM and the GI50 [57] was 2.47 µM. The TGI [57] was 4.96 µM and 5.78 µM.

Work on `Cc1ccc(Oc2ccccc2N)cc1` yielded a TGI [1] of over 100 µM, a TGI [2] of over 100 µM and a TGI [3] of over 100 µM. It also gave a TGI [4] of over 100 µM, a TGI [5] of 45 µM and a TGI [6] of 22.1 µM. It also gave a TGI [7] of over 100 µM, a TGI [8] of over 100 µM and a TGI [9] of over 100 µM. For the same compound, the TGI [10] was over 100 µM, the TGI [11] was 36 µM and the TGI [12] was over 100 µM. The TGI [13] was over 100 µM, the TGI [14] was over 100 µM and the TGI [15] was 26.2 µM. It also gave a TGI [16] of over 100 µM, a TGI [17] of over 100 µM and a TGI [19] of 34.2 µM. The TGI [20] was over 100 µM, the TGI [21] was over 100 µM and the TGI [22] was over 100 µM. It also gave a TGI [23] of over 100 µM, a TGI [24] of over 100 µM and a TGI [25] of over 100 µM. For the same compound, the TGI [26] was over 100 µM, the TGI [27] was over 100 µM and the TGI [29] was 55 µM. For the same compound, the TGI [30] was over 100 µM, the TGI [31] was over 100 µM and the TGI [32] was over 100 µM. The TGI [59] was over 100 µM, the TGI [34] was 86.8 µM and the TGI [35] was over 100 µM. For the same compound, the TGI [36] was over 100 µM, the TGI [37] was over 100 µM and the TGI [38] was over 100 µM. The TGI [39] was 19.2 µM, the TGI [40] was over 100 µM and the TGI [41] was over 100 µM. It also gave a TGI [42] of 80.2 µM, a TGI [43] of over 100 µM and a TGI [44] of over 100 µM. For the same compound, the TGI [45] was 30.4 µM, the TGI [46] was 40.1 µM and the TGI [49] was over 100 µM. It also gave a TGI [50] of over 100 µM, a TGI [51] of over 100 µM and a TGI [52] of over 100 µM. For the same compound, the TGI [53] was over 100 µM, the TGI [54] was over 100 µM and the TGI [55] was 60.6 µM. It also gave a TGI [56] of 44.9 µM, a TGI [57] of over 100 µM and a TGI [58] of over 100 µM.

From PubChem BioAssay (NCI)
